Results reported in patent publication US20060229308A1, “Substituted pyrirmidin-4-ylamine analogues as vanilloid receptor ligands” (Neurogen Corporation, priority 2003, published 2006).

Each molecule was assayed against T1, human capsaicin receptor (Homo sapiens, UniProt Q8NER1) (assay: Calcium mobilization assay, agonist response). Details: capsaicin positive control, calcium mobilization in cells expressing human capsaicin receptor; read-out: approximate EC90 concentration.
T1 construct: transfected with the pBK-CMV expression construct encoding the full length human capsaicin receptor using standard methods; expressed in transfected cells
T1 sequence (Q8NER1 whole entry): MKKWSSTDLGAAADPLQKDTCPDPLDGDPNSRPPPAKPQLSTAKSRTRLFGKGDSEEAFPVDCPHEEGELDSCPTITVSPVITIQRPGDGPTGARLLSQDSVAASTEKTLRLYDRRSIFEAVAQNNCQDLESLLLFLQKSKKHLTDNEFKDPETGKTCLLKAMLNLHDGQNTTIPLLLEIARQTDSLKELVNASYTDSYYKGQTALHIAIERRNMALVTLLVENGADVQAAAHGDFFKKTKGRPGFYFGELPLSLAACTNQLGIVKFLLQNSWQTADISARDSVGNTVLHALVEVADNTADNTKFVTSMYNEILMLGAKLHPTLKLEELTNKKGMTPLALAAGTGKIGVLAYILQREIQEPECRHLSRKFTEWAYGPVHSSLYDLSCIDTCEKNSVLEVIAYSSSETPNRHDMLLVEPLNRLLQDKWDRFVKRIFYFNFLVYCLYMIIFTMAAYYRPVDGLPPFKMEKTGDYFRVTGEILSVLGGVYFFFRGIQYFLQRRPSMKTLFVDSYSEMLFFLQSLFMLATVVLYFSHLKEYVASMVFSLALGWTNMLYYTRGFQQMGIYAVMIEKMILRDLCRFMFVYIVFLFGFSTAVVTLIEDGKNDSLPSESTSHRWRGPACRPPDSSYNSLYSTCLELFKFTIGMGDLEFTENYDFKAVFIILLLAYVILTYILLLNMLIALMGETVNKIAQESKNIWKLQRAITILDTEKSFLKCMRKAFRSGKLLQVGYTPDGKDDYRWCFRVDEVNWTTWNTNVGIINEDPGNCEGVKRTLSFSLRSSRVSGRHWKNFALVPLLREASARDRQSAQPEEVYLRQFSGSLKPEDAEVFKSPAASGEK
Assay type: cell-based
Experimental: Cells transfected with expression plasmids (as described in Example 4) and thereby expressing human capsaicin receptor are seeded and grown to 70-90% confluency in FALCON black-walled, clear-bottomed 96-well plates (#3904, BECTON-DICKINSON, Franklin Lakes, N.J.). The culture medium is emptied from the 96 well plates and FLUO-3 AM calcium sensitive dye (Molecular Probes, Eugene, Oreg.) is added to each well (dye solution: 1 mg FLUO-3 AM, 440 μL DMSO and 440 μl 20% pluronic acid in DMSO, diluted 1:250 in Krebs-Ringer HEPES (KRH) buffer (25 mM HEPES, 5 mM KCl, 0.96 mM NaH2PO4, 1 mM MgSO4, 2 mM CaCl2, 5 mM glucose, 1 mM probenecid, pH 7.4), 50 μl diluted solution per well). […]
To measure the ability of a test compound to agonize or antagonize a calcium mobilization response in cells expressing capsaicin receptors to capsaicin or other vanilloid agonist, the EC50 of the agonist capsaicin is first determined. […] Capsaicin-induced calcium mobilization is monitored using either FLUOROSKAN ASCENT (Labsystems; Franklin, Mass.) or FLIPR (fluorometric imaging plate reader system; Molecular Devices, Sunnyvale, Calif.) instruments. […] In this equation, y is the maximum fluorescence signal, x is the concentration of the agonist or antagonist (in this case, capsaicin), a is the Emax, b corresponds to the EC50 value and c is the Hill coefficient. […]

Question: How did the EC90 turn out when COc1cc(CNC(=O)CCCC/C=C/C(C)C)ccc1O [capsaicin] was run?
Answer: ~100 nM

The molecules below were run against T1, human capsaicin receptor (assay: Calcium mobilization assay, determination of antagonist activity). Details: 50% decrease in fluorescence response of cells expressing human capsaicin receptor exposed to capsaicin; Example 6.
Assay type: cell-based
Excerpt: This Example illustrates the preparation of VR1-transfected cells and VR1-containing membrane preparations for use in capsaicin binding assays (Example 5).
A cDNA encoding full length human capsaicin receptor (SEQ ID NO:1, 2 or 3 of U.S. Pat. No. 6,482,611) was subcloned in the plasmid pBK-CMV (Stratagene, La Jolla, Calif.) for recombinant expression in mammalian cells.
Human embryonic kidney (HEK293) cells were transfected with the pBK-CMV expression construct encoding the full length human capsaicin receptor using standard methods. The transfected cells were selected for two weeks in media containing G418 (400 μg/ml) to obtain a pool of stably transfected cells. Independent clones were isolated from this pool by limiting dilution to obtain clonal stable cell lines for use in subsequent experiments.
This Example illustrates representative calcium mobilization assays for use in evaluating test compounds for agonist and antagonist activity.
Cells transfected with expression plasmids (as described in Example 4) and thereby expressing human capsaicin receptor are seeded and grown to 70-90% confluency in FALCON black-walled, clear-bottomed 96-well plates (#3904, BECTON-DICKINSON, Franklin Lakes, N.J.). The culture medium is emptied from the 96 well plates and FLUO-3 AM calcium sensitive dye (Molecular Probes, Eugene, Oreg.) is added to each well (dye solution: 1 mg FLUO-3 AM, 440 μL DMSO and 440 μl 20% pluronic acid in DMSO, diluted 1:250 in Krebs-Ringer HEPES (KRH) buffer (25 mM HEPES, 5 mM KCl, 0.96 mM NaH2PO4, 1 mM MgSO4, 2 mM CaCl2, 5 mM glucose, 1 mM probenecid, pH 7.4), 50 μl diluted solution per well). Plates are covered with aluminum foil and incubated at 37° C. for 1-2 hours in an environment containing 5% CO2. After the incubation, the dye is emptied from the plates, and the cells are washed once with KRH buffer, and resuspended in KRH buffer.
To measure the ability of a test compound to agonize or antagonize a calcium mobilization response in cells expressing capsaicin receptors to capsaicin or other vanilloid agonist, the EC50 of the agonist capsaicin is first determined. An additional 20 μl of KRH buffer and 1 μl DMSO is added to each well of cells, prepared as described above. 100 μl capsaicin in KRH buffer is automatically transferred by the FLIPR instrument to each well. Capsaicin-induced calcium mobilization is monitored using either FLUOROSKAN ASCENT (Labsystems; Franklin, Mass.) or FLIPR (fluorometric imaging plate reader system; Molecular Devices, Sunnyvale, Calif.) instruments. Data obtained between 30 and 60 seconds after agonist application are used to generate an 8-point concentration response curve, with final capsaicin concentrations of 1 nM to 3 μM. […] software (Synergy Software, Reading, Pa.) is used to fit the data to the equation: y=a*(1/(1+(b/x)^c)) to determine the 50% excitatory concentration (EC50) for the response. In this equation, y is the maximum fluorescence signal, x is the concentration of the agonist or antagonist (in this case, capsaicin), a is the Emax, b corresponds to the EC50 value and c is the Hill coefficient. Determination of Agonist Activity
Test compounds are dissolved in DMSO, diluted in 20 μl KRH buffer so that the final concentration of test compounds in the assay well is between 1 μM and 5 μM, and added to cells prepared as described above. The 96 well plates containing prepared cells and test compounds are incubated in the dark, at room temperature for 0.5 to 6 hours. It is important that the incubation not continue beyond 6 hours. Just prior to determining the fluorescence response, 100 μl capsaicin in KRH buffer at twice the EC50 concentration determined as described above is automatically added by the FLIPR instrument to each well of the 96 well plate for a final sample volume of 200 μl and a final capsaicin concentration equal to the EC50. The final concentration of test compounds in the assay wells is between 1 μM and 5 μM.

Question: For CC(C)(C)c1ccc(Nc2cc(-c3cccc(OC(F)(F)F)c3)ncn2)cc1 [Compound 8, (4-tert-Butyl-phenyl)-[6-(3-tri-fluoromethoxy-phenyl)-pyri-midin-4-yl]-amine], which IC50 is on record?
Answer: ≤ 1000 nM

Question: How did the IC50 turn out when COc1cccc(-c2nc(N3CCOCC3)nc(Nc3ccc(C(F)(F)F)cc3)c2C)c1 [Compound 18, [6-(3-Methoxy-phenyl)-5-meth-yl-2-morpholin-4-yl-pyrimidin-4-yl]-(4-tri-fluoromethyl-phenyl)-amine] was run?
Answer: ≤ 1000 nM

Question: With COc1cncc(-c2ncnc(Nc3ccc(C(C)(C)C)cc3)c2C)c1 [Compound 16, (4-tert-Butyl-phenyl)-[6-(5-meth-oxy-pyridin-3-yl)-5-meth-yl-pyrimidin-4-yl]-amine] as the molecule, how does the IC50 read?
Answer: ≤ 1000 nM

Question: How did the IC50 turn out when CC(C)(C)c1ccc(Nc2cc(-c3cccc(F)c3)ncn2)cc1 [Compound 6, (4-tert-Butyl-phenyl)-[6-(3-fluoro-phenyl)-pyrimidin-4-yl]-amine] was run?
Answer: ≤ 1000 nM

Question: How did the IC50 turn out when COc1cccc(-c2cc(Nc3ccc(C(C)(C)C)cc3)ncn2)c1 [Compound 3, (4-tert-Butyl-phenyl)-[6-(3-meth-oxy-phenyl)-pyrimidin-4-yl]-amine] was run?
Answer: ≤ 1000 nM

Question: CCc1c(Nc2ccc(C(F)(F)F)cc2)ncnc1-c1cccc(OC)c1 [Compound 13, [5-Ethyl-6-(3-methoxy-phenyl)-pyrimidin-4-yl]-(4-tri-fluoromethyl-phenyl)-amine] was tested. Which IC50 did it give?
Answer: ≤ 1000 nM

Question: For COc1cccc(-c2ncnc(Nc3ccc(C(C)(C)C)cc3)c2N)c1 [Compound 17, N^4-(4-tert-Butyl-phenyl)-6-(3-meth-oxy-phenyl)-pyrimidine-4,5-di-amine], which IC50 is on record?
Answer: ≤ 1000 nM

Question: With CCc1c(Nc2ccc(C(C)(C)C)cc2)ncnc1-c1cccc(OC)c1 [Compound 12, (4-tert-Butyl-phenyl)-[5-ethyl-6-(3-meth-oxy-phenyl)-pyrimi-din-4-yl]-amine] as the molecule, how does the IC50 read?
Answer: ≤ 1000 nM

Question: How did the IC50 turn out when CC(C)(C)c1ccc(Nc2cc(-c3ccccc3)ncn2)cc1 [Compound 20, (4-tert-Butyl-phenyl)-(6-phenyl-pyrimidin-4-yl)-amine] was run?
Answer: ≤ 1000 nM

Question: How did the IC50 turn out when COc1ccc(-c2cc(Nc3ccc(C(C)(C)C)cc3)ncn2)cc1 [Compound 4, (4-tert-Butyl-phenyl)-[6-(4-meth-oxy-phenyl)-pyrimidin-4-yl]-amine] was run?
Answer: ≤ 1000 nM

Question: With COc1cccc(-c2ncnc(Nc3ccc(C(C)(C)C)cc3)c2C)c1 [Compound 10, (4-tert-Butyl-phenyl)-[6-(3-meth-oxy-phenyl)-5-methyl-pyrimidin-4-yl]-amine] as the molecule, how does the IC50 read?
Answer: ≤ 1000 nM

Question: How did the IC50 turn out when COc1cccc(-c2nc(C)nc(Nc3ccc(C(F)(F)F)cc3)c2C)c1 [Compound 15, [6-(3-Methoxy-phenyl)-2,5-di-methyl-pyrimidin-4-yl]-(4-tri-fluoromethyl-phenyl)-amine] was run?
Answer: ≤ 1000 nM

Question: For COc1cccc(-c2nc(COCC(C)C)nc(Nc3ccc(C(C)(C)C)cc3)n2)c1 [Compound 11, (4-tert-Butyl-phenyl)-[4-iso-butoxymethyl-6-(3-meth-oxy-phenyl)-[1,3,5]tri-azin-2-yl]-amine], which IC50 is on record?
Answer: ≤ 1000 nM

Question: CC(C)(C)c1ccc(Nc2cc(-c3ccccc3C(F)(F)F)ncn2)cc1 [Compound 5, (4-tert-Butyl-phenyl)-[6-(2-tri-fluoromethyl-phenyl)-pyri-midin-4-yl]-amine] was tested. Which IC50 did it give?
Answer: ≤ 1000 nM

Question: With COc1ccc(-c2cc(Nc3ccc(C(C)(C)C)cc3)ncn2)cc1OC [Compound 21, (4-tert-Butyl-phenyl)-[6-(3,4-di-methoxy-phenyl)-pyrimidin-4-yl]-amine] as the molecule, how does the IC50 read?
Answer: ≤ 1000 nM

Question: Which IC50 does the source give for COc1ccccc1-c1cc(Nc2ccc(C(C)(C)C)cc2)ncn1 [Compound 2, (4-tert-Butyl-phenyl)-[6-(2-meth-oxy-phenyl)-pyrimidin-4-yl]-amine] here?
Answer: ≤ 1000 nM

Question: Which IC50 does the source give for COc1cccc(-c2ncnc(Nc3ccc(C4CCCCC4)cc3)c2N)c1 [Compound 24, N^4-(4-Cyclohexyl-phenyl)-6-(3-meth-oxy-phenyl)-pyrimi-dine-4,5-diamine] here?
Answer: ≤ 1000 nM

Question: Which IC50 does the source give for COc1cccc(-c2nc(C)nc(Nc3ccc(C(C)(C)C)cc3)c2C)c1 [Compound 14, (4-tert-Butyl-phenyl)-[6-(3-meth-oxy-phenyl)-2,5-di-methyl-pyrimidin-4-yl]-amine] here?
Answer: ≤ 1000 nM

Question: COc1cccc(-c2ncnc(Nc3ccc(C(F)(F)F)cc3)c2N)c1 [Compound 23, 6-(3-Methoxy-phenyl)-N^4-(4-tri-fluoromethyl-phenyl)-pyrimi-dine-4,5-diamine] was tested. Which IC50 did it give?
Answer: ≤ 1000 nM

Question: COc1cccc(-c2nc(N3CCOCC3)nc(Nc3ccc(C(C)(C)C)cc3)c2C)c1 [Compound 19, (4-tert-Butyl-phenyl)-[6-(3-meth-oxy-phenyl)-5-methyl-2-mor-pholin-4-yl-pyrimidin-4-yl]-amine] was tested. Which IC50 did it give?
Answer: ≤ 1000 nM

Question: How did the IC50 turn out when Cc1cccc(-c2cc(Nc3ccc(C(C)(C)C)cc3)ncn2)c1 [Compound 7, (4-tert-Butyl-phenyl)-(6-m-tolyl-pyrimidin-4-yl)-amine] was run?
Answer: ≤ 1000 nM

Question: With CCOc1cccc(-c2cc(Nc3ccc(C(C)(C)C)cc3)ncn2)c1 [Compound 9, (4-tert-Butyl-phenyl)-[6-(3-eth-oxy-phenyl)-pyrimidin-4-yl]-amine] as the molecule, how does the IC50 read?
Answer: ≤ 1000 nM

Question: How did the IC50 turn out when CC(C)(C)c1ccc(Nc2cc(-c3ccc(Cl)cc3)ncn2)cc1 [Compound 1, (4-tert-Butyl-phenyl)-[6-(4-chloro-phenyl)-pyrimidin-4-yl]-amine] was run?
Answer: ≤ 1000 nM
